These results are taken from ChEMBL document CHEMBL1201862, “PubChem BioAssay data set” (2004).

Test systems include COLO 205; DU-145; HCC 2998; HL-60; HOP-92; M14; MDA-MB-231; NCI-H460; OVCAR-3; OVCAR-4; RPMI-8226; RXF 393; SF-268; SK-OV-3; SN12C; SW-620; UACC-257; UACC-62; UO-31; A498.
What all share (assay): NCI tumour cell line growth inhibition, 48 h

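Method: 48-hour compound exposure of cells in 96-well plates, five concentrations, linear interpolation of endpoints. GI50 marks 50% less growth.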 Activity calls are given as the source filed them. Cut-off read from the data, not from the text of the source: active = GI50 up to about 1.1 µM and inactive = higher. Non-standard residues stand in square brackets, D forms with d. Residues, ends and D or L forms follow the SMILES beside them. ξ: configuration not given here. *: point of attachment. Cbz = O=C(OCc1ccccc1)*; ξK = NCCCCC(N)C(=O)O

Regarding `Cc1ccc(-c2nc(N/N=C/C=C/c3ccccc3)c3ccccc3n2)cc1`, the GI50 was 57.3 µM (inactive) in the assay on COLO 205; 25.9 µM (inactive) with DU-145; 28.4 µM (inactive) in the assay on HCC 2998; > 100 µM (inactive) with HL-60; 31.3 µM (inactive) in the assay with HOP-92; 29.4 µM (inactive) with M14. Further, the GI50 was 16.6 µM (inactive) in the assay with MDA-MB-231; 28.6 µM (inactive) in the assay with NCI-H460; 31.6 µM (inactive) in the assay with OVCAR-3; 50.5 µM (inactive) with OVCAR-4; > 100 µM (inactive) in the assay on RPMI-8226; 26.2 µM (inactive) with RXF 393. The GI50 in the assay on SF-268 is 33.5 µM (inactive); in the assay on SK-OV-3 it was 23.8 µM (inactive); with SN12C it was 24.8 µM (inactive); in the assay on SW-620, 29.1 µM (inactive); in the assay with UACC-257, 34 µM (inactive); in the assay on UACC-62 it was 17.1 µM (inactive). Moreover, the GI50 with UO-31 was 83.6 µM (inactive).
Turning to `CNc1ccc([S+]([O-])Nc2ccc(OC)cc2)cc1` (stereo not drawn), the GI50 in the assay on A498 was > 100 µM (inactive); in the assay with COLO 205, 29.2 µM (inactive); in the assay on DU-145, 39.5 µM (inactive); in the assay with HCC 2998, 50.2 µM (inactive); in the assay with HL-60 it was 54.6 µM (inactive); with HOP-92, > 100 µM (inactive). Further, the GI50 was > 100 µM (inactive) in the assay with M14; 17.1 µM (inactive) in the assay on MDA-MB-231; 32 µM (inactive) with NCI-H460; > 100 µM (inactive) in the assay on OVCAR-3; > 100 µM (inactive) in the assay with OVCAR-4; > 100 µM (inactive) with RPMI-8226. Also, the GI50 is > 100 µM (inactive) in the assay with SF-268; 49.2 µM (inactive) with SK-OV-3; > 100 µM (inactive) with SN12C; 31.6 µM (inactive) in the assay on SW-620; > 100 µM (inactive) in the assay on UACC-257; > 10 µM (inactive) with UACC-62. For the same compound, the GI50 in the assay on UO-31 was 7 µM (inactive).
Consider `COC(=O)[C@H](Cc1ccccc1)NC(=O)N(CCN(CCC#N)C(=O)N[C@H](C(=O)OC)C(C)C)c1ccccc1`, for which the GI50 in the assay on A498 was > 100 µM (inactive); in the assay with COLO 205, > 100 µM (inactive); in the assay on DU-145, > 100 µM (inactive); in the assay on HCC 2998, > 100 µM (inactive); with HOP-92, 22.8 µM (inactive); with M14 it was > 100 µM (inactive). Besides, the GI50 in the assay on MDA-MB-231 was > 100 µM (inactive); in the assay with OVCAR-3, > 100 µM (inactive); with OVCAR-4, 53.3 µM (inactive); with RPMI-8226, 33.2 µM (inactive); in the assay on RXF 393, > 100 µM (inactive); with SF-268 it was > 100 µM (inactive). Also, the GI50 was > 100 µM (inactive) in the assay with SK-OV-3; > 100 µM (inactive) in the assay on SN12C; > 100 µM (inactive) in the assay on SW-620; 32.1 µM (inactive) in the assay with UACC-257; 48.5 µM (inactive) with UACC-62; > 100 µM (inactive) with UO-31.
For `CC(C)OC(=O)[C@H]1ON2O[C@H](O[C@@H]3CCCC[C@H]3c3ccccc3)C([Si](C)(C)c3ccccc3)[C@H]3OC(=O)[C@@H]1C32` (stereo partly drawn), the GI50 in the assay with A498, with COLO 205, in the assay with DU-145, with HCC 2998, with HL-60 and with HOP-92 was > 100 µM (inactive) throughout. Further, the GI50 in the assay on M14, in the assay on MDA-MB-231, with NCI-H460, in the assay on OVCAR-3, in the assay on RPMI-8226 and with RXF 393 was > 100 µM (inactive) throughout. Also, the GI50 with SF-268, in the assay with SK-OV-3, in the assay on SN12C, with SW-620, in the assay with UACC-257 and in the assay on UACC-62 was > 100 µM (inactive) each time. The GI50 in the assay with UO-31 is > 100 µM (inactive).
Consider `CN(/N=C/c1ccnc2ccccc12)c1ccc(Cl)cc1[N+](=O)[O-]`, for which the GI50 is > 100 µM (inactive) in the assay on A498; > 100 µM (inactive) in the assay on COLO 205; > 100 µM (inactive) in the assay on DU-145; > 100 µM (inactive) in the assay with HCC 2998; > 100 µM (inactive) in the assay with HL-60; 25.8 µM (inactive) with HOP-92. Further, the GI50 in the assay on M14 was > 100 µM (inactive); with MDA-MB-231, > 100 µM (inactive); in the assay on NCI-H460, > 100 µM (inactive); with OVCAR-3, 80.9 µM (inactive); with OVCAR-4 it was 4.92 µM (inactive); in the assay on RXF 393, 37.3 µM (inactive). For the same compound, the GI50 in the assay on SF-268 is 80 µM (inactive); in the assay on SK-OV-3 it was > 100 µM (inactive); with SN12C, > 100 µM (inactive); in the assay on SW-620 it was > 100 µM (inactive); with UACC-257, 9.59 µM (inactive); with UACC-62 it was > 100 µM (inactive). For the same compound, the GI50 in the assay on UO-31 was > 100 µM (inactive).
As to `NCCCCC(NC(=O)OCc1ccccc1)C(=O)NCC(N)=O` (stereo not drawn) (Cbz-[ξK]-Gly-NH2), the GI50 in the assay with A498, with COLO 205, with DU-145, with HCC 2998, with HOP-92 and in the assay on M14 was > 100 µM (inactive) each time. Also, the GI50 with MDA-MB-231, with NCI-H460, with OVCAR-3, with OVCAR-4, in the assay with RPMI-8226 and with RXF 393 was > 100 µM (inactive) each time. Moreover, the GI50 in the assay on SF-268, in the assay on SK-OV-3, with SN12C, with SW-620, in the assay with UACC-257 and in the assay on UACC-62 was > 100 µM (inactive) throughout. Further, in the assay on UO-31, the GI50 is > 100 µM (inactive).
Consider `COc1ccc(NCc2cnc3nc(N)nc(N)c3c2C)cc1`, for which the GI50 in the assay on A498 is > 100 µM (inactive); with COLO 205, 9.35 µM (inactive); with DU-145 it was 0.718 µM (active); in the assay with HCC 2998, 12.7 µM (inactive); in the assay with HOP-92 it was 5.93 µM (inactive); in the assay on M14 it was 1.69 µM (inactive). For the same compound, the GI50 in the assay with MDA-MB-231 is 0.121 µM (active); in the assay on NCI-H460, 0.433 µM (active); in the assay with OVCAR-3, 28.4 µM (inactive); in the assay on OVCAR-4, > 53.5 µM (inactive); in the assay on RPMI-8226 it was 5.96 µM (inactive); with RXF 393 it was 43.5 µM (inactive). In addition, the GI50 with SF-268 is 0.618 µM (active); in the assay with SK-OV-3 it was 4.34 µM (inactive); in the assay with SN12C it was 3.85 µM (inactive); in the assay on SW-620 it was 0.914 µM (active); in the assay on UACC-257, 2.58 µM (inactive); in the assay on UACC-62, 0.274 µM (active). For the same compound, the GI50 with UO-31 is > 49.8 µM (inactive).
On to `C/C(=N\NC(=S)Nc1ccc([N+](=O)[O-])cc1)c1nc2cccnc2[nH]1`, for which the GI50 is 2.67 µM (inactive) with A498; 2.44 µM (inactive) with COLO 205; 1.21 µM (inactive) in the assay on DU-145; 1.15 µM (inactive) in the assay with HCC 2998; 0.652 µM (active) in the assay with HL-60; 1.51 µM (inactive) in the assay on HOP-92. In addition, the GI50 was 1.26 µM (inactive) in the assay with M14; 1.31 µM (inactive) in the assay on MDA-MB-231; 0.379 µM (active) in the assay with NCI-H460; 0.299 µM (active) in the assay with OVCAR-3; 0.583 µM (active) with OVCAR-4; 1.87 µM (inactive) with RPMI-8226. In addition, the GI50 is 0.278 µM (active) in the assay on SF-268; 1.16 µM (inactive) in the assay with SK-OV-3; 1.65 µM (inactive) with SN12C; 0.906 µM (active) in the assay on SW-620; 0.565 µM (active) in the assay on UACC-257; 0.447 µM (active) in the assay on UACC-62. For the same compound, the GI50 in the assay on UO-31 was 0.322 µM (active).
In the case of `CO/N=C(\C(=O)Nc1cncs1)c1csc(N)n1`, the GI50 in the assay with A498, in the assay with COLO 205, with DU-145, with HCC 2998, in the assay on HOP-92 and in the assay on M14 was > 10 µM (inactive) each time. The GI50 is > 10 µM (inactive) in the assay with MDA-MB-231; > 10 µM (inactive) in the assay with NCI-H460; > 10 µM (inactive) in the assay on OVCAR-3; > 10 µM (inactive) in the assay on OVCAR-4; 6.27 µM (inactive) with RPMI-8226; > 10 µM (inactive) in the assay with SF-268. In addition, the GI50 in the assay with SK-OV-3, in the assay on SN12C, in the assay on SW-620, in the assay on UACC-257, with UACC-62 and with UO-31 was > 10 µM (inactive) each time.
As to `Nc1ccccc1-n1c2c(c3ccccc3c1=O)C(=O)c1ccccc1-2`, the GI50 with A498 is 54.5 µM (inactive); with COLO 205, 26.1 µM (inactive); in the assay with DU-145, 34 µM (inactive); in the assay with HCC 2998, 21.8 µM (inactive); in the assay with HL-60 it was 0.046 µM (active); with HOP-92, 16.6 µM (inactive). In addition, the GI50 in the assay with M14 was 61.7 µM (inactive); with MDA-MB-231, 23.9 µM (inactive); in the assay with NCI-H460 it was 24.5 µM (inactive); in the assay on OVCAR-3 it was 21.8 µM (inactive); with OVCAR-4, 4.11 µM (inactive); in the assay with RPMI-8226, 60.1 µM (inactive). Besides, the GI50 in the assay on SF-268 is 8.24 µM (inactive); with SK-OV-3 it was 6.98 µM (inactive); with SN12C it was 42 µM (inactive); in the assay on SW-620, 14.5 µM (inactive); in the assay with UACC-257, 35.9 µM (inactive); in the assay on UACC-62, 17.2 µM (inactive). Further, in the assay on UO-31, the GI50 is 11.1 µM (inactive).
